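The compound was tested at five concentrations on cells cultured in 96-well plates, with a 48-hour exposure period. TGI denotes the concentration required for complete inhibition of growth.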
Tests used:
Test in all cases: NCI anticancer screen, dose series, 48 h
[1] = system: 786-0 renal
[2] = system: A498 renal
[3] = system: A549 NSCLC
[4] = system: ACHN renal
[5] = system: CAKI-1 renal
[6] = system: COLO 205 colon
[7] = system: DMS 114 small cell lung
[8] = system: DMS 273 small cell lung
[9] = system: EKVX NSCLC
[10] = system: HCC-2998 colon
[11] = system: HCT-116 colon
[12] = system: HCT-15 colon
[13] = system: HL-60(TB) leukemia
[14] = system: HOP-62 NSCLC
[15] = system: HOP-92 NSCLC
[16] = system: HT29 colon
[17] = system: IGROV1 ovarian
[18] = system: K-562 leukemia
[19] = system: KM12 colon
[20] = system: KM20L2 colon
[21] = system: LOX IMVI melanoma
[22] = system: M14 melanoma
[23] = system: M19-MEL melanoma
[24] = system: MALME-3M melanoma
[25] = system: MOLT-4 leukemia
[26] = system: NCI-H226 lung
[27] = system: NCI-H23 lung
[28] = system: NCI-H460 lung
[29] = system: NCI-H522 lung
[30] = system: OVCAR-3 ovarian
[31] = system: OVCAR-4 ovarian
[32] = system: OVCAR-5 ovarian
[33] = system: OVCAR-8 ovarian
[34] = system: RPMI-8226 leukemia
[35] = system: RXF 393 renal
[36] = system: SF-268 CNS
[37] = system: SF-295 CNS
[38] = system: SF-539 CNS
[39] = system: SK-MEL-2 melanoma
[40] = system: SK-MEL-28 melanoma
[41] = system: SK-MEL-5 melanoma
[42] = system: SK-OV-3 ovarian
[43] = system: SN12C renal
[44] = system: SNB-19 CNS
[45] = system: SNB-75 CNS
[46] = system: SNB-78 CNS
[47] = system: SW-620 colon
[48] = system: TK-10 renal
[49] = system: U251 CNS
[50] = system: UACC-257 melanoma
[51] = system: UACC-62 melanoma
[52] = system: UO-31 renal
[53] = system: DLD-1 colon
[54] = system: LXFL 529 NSCLC
[55] = system: SR leukemia

Measured: TGI

COC(=O)c1s/c(=N\C(=S)N(C)C)n(-c2ccccc2)c1C(=O)OC
not listed: [53] | [54] | [55]
> 100 µM: all other assays above

O/N=C(\c1ccccc1)N1CCCCC1
not listed: [2] | [4] | [9] | [12] | [17] | [18] | [23] | [24] | [25] | [26] | [34] | [35] | [40] | [41] | [42] | [48] | [51]
> 100 µM: all other assays above

From PubChem BioAssay (NCI)
